Measurements as given in US20260265222A1, “1H-PYRROLE-2-AMIDE DERIVATIVE, PHARMACEUTICAL COMPOSITION AND METHOD FOR TREATING AND/OR PREVENTING YTHDC1-RELATED DISEASES” (priority 2023, published 2026).

Biological target: T1, GST-YTHDC1 (345-509) protein (Homo sapiens, UniProt Q96MU7)
T1 construct: GST-YTHDC1 (345-509) protein
Experiment: Fluorescence polarization-based in vitro enzyme-level test against YTHDC1
Format: binding
Conditions: 30 nM GST-YTHDC1 (345-509), FAM-labeled m6A-modified single-stranded oligonucleotide, 18° C., 4 hours; read-out: IC50 (Inhibitory Activity against YTHDC1)

Row | IC50 | Compound
1 | 800 nM | O=C(Nc1cccnc1)c1cc(C(=O)c2ccccc2C(F)(F)F)c[nH]1 [Compound 2]
2 | 1780 nM | O=C(Nc1cccnc1)c1cc(C(=O)c2ccccc2Br)c[nH]1 [Compound 5]
3 | > 50000 nM | O=C(Nc1cccnc1)c1cc(C(=O)c2ccccc2F)c[nH]1 [Compound 7]
4 | 2840 nM | O=C(Nc1cccnc1)c1cc(C(=O)c2ccccc2Cl)c[nH]1 [Compound 8]
5 | 10600 nM | COc1ccccc1C(=O)c1c[nH]c(C(=O)Nc2cccnc2)c1 [Compound 9]
6 | 2010 nM | CC(C)(C)c1ccccc1C(=O)c1c[nH]c(C(=O)Nc2cccnc2)c1 [Compound 10]
7 | 1570 nM | CCc1ccccc1C(=O)c1c[nH]c(C(=O)Nc2cccnc2)c1 [Compound 11]
8 | 120 nM | O=C(Nc1ccccc1)c1cc(C(=O)c2ccccc2C(F)(F)F)c[nH]1 [Compound 12]
9 | 612 nM | O=C(Nc1ccccc1F)c1cc(C(=O)c2ccccc2C(F)(F)F)c[nH]1 [Compound 13]
10 | 248 nM | O=C(Nc1cccc(F)c1)c1cc(C(=O)c2ccccc2C(F)(F)F)c[nH]1 [Compound 14]
11 | 105 nM | O=C(Nc1ccc(F)cc1)c1cc(C(=O)c2ccccc2C(F)(F)F)c[nH]1 [Compound 15]
12 | 41 nM | O=C(Nc1ccc(Br)cc1)c1cc(C(=O)c2ccccc2C(F)(F)F)c[nH]1 [Compound 16]
13 | 42 nM | O=C(Nc1ccc(OC(F)(F)F)cc1)c1cc(C(=O)c2ccccc2C(F)(F)F)c[nH]1 [Compound 17]
14 | 39 nM | O=C(Nc1ccc(C(F)(F)F)cc1)c1cc(C(=O)c2ccccc2C(F)(F)F)c[nH]1 [Compound 18]
15 | 31 nM | CC(=O)c1ccc(NC(=O)c2cc(C(=O)c3ccccc3C(F)(F)F)c[nH]2)cc1 [Compound 19]
16 | 23 nM | CCOC(=O)c1ccc(NC(=O)c2cc(C(=O)c3ccccc3C(F)(F)F)c[nH]2)cc1 [Compound 20]
17 | 71 nM | O=C(Nc1ccc(-c2ccccc2)cc1)c1cc(C(=O)c2ccccc2C(F)(F)F)c[nH]1 [Compound 21]
18 | 23 nM | O=C(Nc1ccc(-c2ccccn2)cc1)c1cc(C(=O)c2ccccc2C(F)(F)F)c[nH]1 [Compound 22]
19 | 47 nM | O=C(Nc1ccc(-c2cccnc2)cc1)c1cc(C(=O)c2ccccc2C(F)(F)F)c[nH]1 [Compound 23]
20 | 12 nM | O=C(Nc1ccc(-c2ccncc2)cc1)c1cc(C(=O)c2ccccc2C(F)(F)F)c[nH]1 [Compound 24]
21 | 36 nM | O=C(Nc1ccc(-c2ccoc2)cc1)c1cc(C(=O)c2ccccc2C(F)(F)F)c[nH]1 [Compound 25]
22 | 64 nM | O=C(Nc1ccc(-c2ccsc2)cc1)c1cc(C(=O)c2ccccc2C(F)(F)F)c[nH]1 [Compound 26]

Row | IC50 | Compound
23 | 23 nM | O=C(Nc1ccc(-c2cnc[nH]2)cc1)c1cc(C(=O)c2ccccc2C(F)(F)F)c[nH]1 [Compound 27]
24 | 10 nM | O=C(Nc1ccc(-c2cnco2)cc1)c1cc(C(=O)c2ccccc2C(F)(F)F)c[nH]1 [Compound 28]
25 | 530 nM | Cn1nc(C(F)(F)F)cc1-c1ccc(NC(=O)c2cc(C(=O)c3ccccc3C(F)(F)F)c[nH]2)cc1 [Compound 30]
26 | 15 nM | N#Cc1ccc(-c2ccc(NC(=O)c3cc(C(=O)c4ccccc4C(F)(F)F)c[nH]3)cc2)s1 [Compound 31]
27 | 11 nM | Cc1ncc(-c2ccc(NC(=O)c3cc(C(=O)c4ccccc4C(F)(F)F)c[nH]3)cc2)s1 [Compound 32]
28 | 12 nM | Cc1ncsc1-c1ccc(NC(=O)c2cc(C(=O)c3ccccc3C(F)(F)F)c[nH]2)cc1 [Compound 33]
29 | 22 nM | O=C(Nc1ccc(-c2cnc(N3CC(F)C3)s2)cc1)c1cc(C(=O)c2ccccc2C(F)(F)F)c[nH]1 [Compound 34]
30 | 424 nM | O=C(Nc1ccc(-c2cnc(N3CC(F)(F)C3)s2)cc1)c1cc(C(=O)c2ccccc2C(F)(F)F)c[nH]1 [Compound 35]
31 | 13 nM | O=C(Nc1ccc(-c2cnc(N3CCCC3)s2)cc1)c1cc(C(=O)c2ccccc2C(F)(F)F)c[nH]1 [Compound 36]
32 | 335 nM | O=C(Nc1ccc(-c2cnc(N3CCCCC3)s2)cc1)c1cc(C(=O)c2ccccc2C(F)(F)F)c[nH]1 [Compound 37]
33 | 17 nM | O=C(Nc1ccc(-c2cnc(N3CCOCC3)s2)cc1)c1cc(C(=O)c2ccccc2C(F)(F)F)c[nH]1 [Compound 38]
34 | > 50000 nM | O=C(c1ccc(C(F)(F)F)cc1)c1c[nH]c(C(=O)Nc2ccc(-c3cncs3)cc2)c1 [Compound 39]
35 | 192 nM | O=C(Nc1ccc(-c2cncs2)cc1)c1cc2c(-c3ccccc3C(F)(F)F)nccc2[nH]1 [Compound 41]
36 | 180 nM | O=C(Nc1ccc(-c2cncs2)cc1)c1cc2c(ncn2-c2ccccc2C(F)(F)F)[nH]1 [Compound 42]
37 | > 50000 nM | CC(C)(C)NS(=O)(=O)c1ccccc1-c1nccc2[nH]c(C(=O)Nc3ccc(-c4cncs4)cc3)cc12 [Compound 57]
38 | > 50000 nM | CN(C)c1ncc(-c2ccc(NC(=O)c3cc4c(-c5ccccc5S(C)(=O)=O)nccc4[nH]3)cc2)o1 [Compound 71]
39 | 8.5 nM | CN(C)c1ncc(-c2ccc(NC(=O)c3cc(C(=O)c4ccccc4C(F)(F)F)c[nH]3)cc2)o1 [Compound 75]
40 | 5040 nM | CCN(CCNc1ncc(-c2ccc(NC(=O)c3cc(C(=O)c4ccccc4C(F)(F)F)c[nH]3)cc2)o1)C(=O)OC(C)(C)C [Compound 76]
41 | 67 nM | O=C(Nc1ccc(-c2cnc(N3CCOCC3)o2)cc1)c1cc(C(=O)c2ccccc2C(F)(F)F)c[nH]1 [Compound 77]
42 | 123 nM | O=C(Nc1ccc(-c2cnc(N3CCOCC3)o2)cc1)c1cc(C(=O)c2ccccc2Br)c[nH]1 [Compound 78]
43 | 88 nM | CN1CCN(c2ncc(-c3ccc(NC(=O)c4cc(C(=O)c5ccccc5C(F)(F)F)c[nH]4)cc3)o2)CC1 [Compound 79]

The next lines start with the compound.

Row | Compound | IC50
44 | O=C(Nc1cccnc1)c1cc(C(=O)c2c(F)cc(F)cc2Br)c[nH]1 [Compound 3] | > 50000 nM
45 | O=C(Nc1cccnc1)c1cc(C(=O)c2c(Br)ccc(F)c2F)c[nH]1 [Compound 4] | > 50000 nM
46 | O=C(c1ccccc1)c1c[nH]c(C(=O)Nc2cccnc2)c1 [Compound 6] | > 50000 nM
47 | CC(C)n1nccc1-c1nccc2[nH]c(C(=O)Nc3ccc(-c4cncs4)cc3)cc12 [Compound 40] | > 50000 nM
48 | N#Cc1ccccc1-c1nccc2[nH]c(C(=O)Nc3ccc(-c4cncs4)cc3)cc12 [Compound 43] | 3900 nM
49 | O=C(Nc1ccc(-c2cncs2)cc1)c1cc2c(-c3ccccc3OC(F)(F)F)nccc2[nH]1 [Compound 44] | 138 nM
50 | O=C(Nc1ccc(-c2cncs2)cc1)c1cc2c(-c3ccccc3CO)nccc2[nH]1 [Compound 45] | > 50000 nM
51 | COc1cnccc1-c1nccc2[nH]c(C(=O)Nc3ccc(-c4cncs4)cc3)cc12 [Compound 46] | > 50000 nM
52 | O=C(Nc1ccc(-c2cncs2)cc1)c1cc2c(-c3ccccc3)nccc2[nH]1 [Compound 47] | > 50000 nM
53 | O=C(Nc1ccc(-c2cncs2)cc1)c1cc2c(-c3ccc(C(F)(F)F)cc3C(F)(F)F)nccc2[nH]1 [Compound 48] | > 50000 nM
54 | O=C(Nc1ccc(-c2cncs2)cc1)c1cc2c(-c3ccncc3C(F)(F)F)nccc2[nH]1 [Compound 49] | > 50000 nM
55 | CS(=O)(=O)c1ccccc1-c1nccc2cc(C(=O)Nc3ccc(-c4cncs4)cc3)[nH]c12 [Compound 50] | 67 nM
56 | CC(=O)c1ccccc1-c1nccc2[nH]c(C(=O)Nc3ccc(-c4cncs4)cc3)cc12 [Compound 51] | > 50000 nM
57 | CS(=O)(=O)Nc1ccccc1-c1nccc2[nH]c(C(=O)Nc3ccc(-c4cncs4)cc3)cc12 [Compound 52] | 660 nM
58 | O=C(Nc1ccc(-c2cncs2)cc1)c1cc2c(-c3ccccc3F)nccc2[nH]1 [Compound 53] | > 50000 nM
59 | O=C(Nc1ccc(-c2cncs2)cc1)c1cc2c(-c3c[nH]nc3C(F)(F)F)nccc2[nH]1 [Compound 54] | > 50000 nM
60 | O=C(Nc1ccc(-c2cncs2)cc1)c1cc2c(-c3ccccc3[N+](=O)[O-])nccc2[nH]1 [Compound 55] | 278 nM

Row | Compound | IC50
61 | O=C(Nc1ccc(-c2cncs2)cc1)c1cc2c(-c3ccccc3N3CCOCC3)nccc2[nH]1 [Compound 56] | 928 nM
62 | CS(=O)(=O)c1ccccc1-c1ncc(F)c2[nH]c(C(=O)Nc3ccc(-c4cncs4)cc3)cc12 [Compound 58] | 80 nM
63 | O=C(Nc1ccc(-c2cncs2)cc1)c1cc2c(-c3ccccc3OC(F)(F)F)c(F)ccc2[nH]1 [Compound 59] | > 50000 nM
64 | CN(C)c1ccccc1-c1nccc2[nH]c(C(=O)Nc3ccc(-c4cncs4)cc3)cc12 [Compound 61] | 2510 nM
65 | CS(=O)(=O)c1ccccc1-c1nccc2[nH]c(C(=O)Nc3ccc(-c4cnco4)cc3)cc12 [Compound 62] | 280 nM
66 | O=C(Nc1ccc(-c2cncs2)cc1)c1cc2c(-c3ccccc3OC(F)F)nccc2[nH]1 [Compound 63] | 394 nM
67 | O=C(Nc1ccc(-c2cncs2)cc1)c1cc2c(-c3ccccc3-c3ccccc3)nccc2[nH]1 [Compound 64] | 1130 nM
68 | CSc1ccccc1-c1nccc2[nH]c(C(=O)Nc3ccc(-c4cncs4)cc3)cc12 [Compound 65] | 11200 nM
69 | O=C(Nc1ccc(-c2cncs2)cc1)c1cc2c(-c3ccccc3C3CC3)nccc2[nH]1 [Compound 66] | > 50000 nM
70 | O=C(Nc1ccc(-c2cncs2)cc1)c1cc2c(-c3ccccc3OC3CC3)nccc2[nH]1 [Compound 67] | > 50000 nM
71 | CCSc1ccccc1-c1nccc2[nH]c(C(=O)Nc3ccc(-c4cncs4)cc3)cc12 [Compound 68] | 1670 nM
72 | CS(=O)(=O)c1ccccc1-c1cccc2[nH]c(C(=O)Nc3ccc(-c4cncs4)cc3)cc12 [Compound 69] | 373 nM
73 | CS(=O)(=O)c1ccccc1-c1ccnc2[nH]c(C(=O)Nc3ccc(-c4cncs4)cc3)cc12 [Compound 70] | 2280 nM
74 | CS(=O)(=O)c1ccccc1-c1nccc2[nH]c(C(=O)Nc3ccc(-c4ccccc4)cc3)cc12 [Compound 72] | 36500 nM
75 | CS(=O)(=O)c1ccccc1-c1nccc2[nH]c(C(=O)Nc3ccc(-c4ccncc4)cc3)cc12 [Compound 73] | 6270 nM
76 | CS(=O)(=O)c1ccccc1-c1nccc2[nH]c(C(=O)Nc3ccc(-c4cncnc4)cc3)cc12 [Compound 74] | > 50000 nM
